This is an account of results in publication PMC11876692, “Synthesis, physicochemical characterization and biological activity of novel pyrrole flavones” (Scientific Reports, 2025).

One data set relates to 5637 cells. Briefly: MTT assay, cytotoxicity towards 5637 bladder cancer cells. The class given is cell-based, human. The note with it: for cell viability: preliminary experiment (10 µM implied); for IC50: Homo sapiens, MTT. As for the experimental part:
(§1) Human urinary bladder grade II carcinoma cell line (5637), human urinary bladder carcinoma (HT-1376), and human lung fibroblasts (MRC-5) were purchased from ATCC (Manassas, VA, USA). The 5637 cells were grown in RPMI, HT-1376 cells were cultured in EMEM, and MRC-5 in DMEM. All media were supplemented with 10% (v/v) FBS, 2 mM L-glutamine, 100 U/mL penicillin, and […] streptomycin (1% v/v). The cells were cultured at 37 °C in a humidified atmosphere with 5% CO2.
(§2) Tested compounds were dissolved in DMSO at a concentration of 10 mM for preliminary study. […] Stock solutions were stored in the dark at -20 °C.
(§3) For the preliminary experiments, the 5637 cells were used. The compounds were prepared in the cell culture medium at a concentration of 0.1 µM, 1 µM, and 10 µM. DMSO was used as a control. […] Cells were treated with compounds for 24, 48, and 72 h. Cells were washed twice with DPBS, and 170 µL of MTT solution at a final concentration of 0.59 mg/mL in culture medium was added. Cells were incubated with MTT solution for 1.5 h at standard cell culture conditions. After incubation, MTT was removed, and formazan crystals were dissolved with 200 µL DMSO. The absorbance was measured at a wavelength of 570 nm using a plate reader (Biotek Instruments, Elx-800, Winooski, VT, USA).
(§4) Subsequently, cells were treated with compound 4a at a concentration of 0.5 µM, 1 µM, 2 µM, 4 µM, 6 µM, and 8 µM and compound 5b at a concentration range of 2 µM, 4 µM, 6 µM, 8 µM,10 µM, and 15 µM for 24 h and 48 h. […] The MTT assay was performed as described above.
(§5) The IC50 values were calculated using the GraphPad Prism 8 software (GraphPad Software, Inc., La Jolla, CA, USA), and cell viability was expressed as a percentage of the control. At least three biological replicates were performed for each compound.
(Tetrazolium dyes change colour on reduction, which living cells bring about.)

The next data set concerns Aliivibrio fischeri. The note with it: 10 µM.
Another data set has as its system HT-1376 cells. Briefly: MTT assay, cytotoxicity towards HT-1376 bladder cancer cells. It is filed as cell-based, human. As for the experimental part: as §1, §2, §3, §4, §5
Another data set has as its system MRC-5 cells. The experiment in a line: MTT assay, cytotoxicity towards non-cancerous MRC-5 fibroblasts. It is filed as cell-based, human. The settings on record: for IC50: Homo sapiens, MTT; for effect on viability of MRC-5 cells: all tested concentrations (2-15 µM), 24 and 48 h. As for the experimental part:
as §1, §2, §3, §4, §5

Experiment in data set [1]: as above
The settings on record: human, MRC-5 lung fibroblasts, MRC-5 cells, 24 h, read-out: cell viability. It is filed as cell-based, human. The procedure: as §1, §2, §3, §4, §5

[2] abbreviates: Homo sapiens, HT-1376, 24 h, 24 h.
Setting [3] is: Homo sapiens, HT-1376, 48 h, 48 h.

Description for Aliivibrio fischeri: All the synthesized derivatives were subjected to the Microtox test. […] The acute toxicity of the tested compounds was measured using the Microtox test. For the measurements, the 81.9% screening test procedure was applied using the Microtox [MUT] apparatus along with the Microtox Omni 4.2 software supplied by the manufacturer (Modern Water plc). Briefly, the bioluminescence of bacterial suspension was measured before the addition of the solution of the tested compound and after 5 and 15 min upon exposure. […] As the control, 2% sodium chloride solution was used (Modern Water Microtox Diluent).

Take `Cc1ccc(C)n1-c1ccc2oc(-c3ccccc3)cc(=O)c2c1` [4a, 6-(2,5-Dimethylpyrrol-1-yl)-2-phenylchromen-4-one]: the “effect on viability of cancer cells” value with 5637 cells (10 µM) was “did not affect the viability”. Also, the decrease in bioluminescence in the data set with Aliivibrio fischeri came out at 80%.
The cell viability is the share of living cells, or the viability signal relative to a control. Low readings indicate more harm to the cells, high ones less harm to the cells. On to `Cc1ccc(C)n1-c1ccc2c(=O)cc(-c3ccccc3)oc2c1` [5a, 7-(2,5-Dimethylpyrrol-1-yl)-2-phenylchromen-4-one], for which the values for the cell viability in the data set on 5637 cells (48 h of incubation) and in the data set on 5637 cells (72 h of incubation) were 75.8% and 48%, respectively.
For orientation: IC50 means the concentration needed to halve the response being measured. As for `Cc1ccc(-c2ccccc2)n1-c1ccc2c(=O)cc(-c3ccccc3)oc2c1` [5b, 7-(2-Methyl-5-phenylpyrrol-1-yl)-2-phenylchromen-4-one], the IC50 in the data set with 5637 cells (24 h) was 7.39 ± 2.02 µM; with 5637 cells (48 h), 4.61 ± 0.1 µM; in the data set on HT-1376 cells (24 h), 13.5 ± 1.41 µM; in the data set with HT-1376 cells (setting [2]), roughly 13 µM; in the data set with HT-1376 cells (setting [3]), 11.7 ± 1.74 µM; in the data set with MRC-5 cells (MRC5, 24 h) it was greater than 15 µM. In the data set on MRC-5 cells (MRC5, 48 h), this compound registered an IC50 greater than 15 µM. The “effect on viability of MRC-5 cells” value in the data set with MRC-5 cells was “did not decrease cell viability”; in the data set on MRC-5 cells (listed as flavone derivative with 7-(2-methyl-5-phenylpyrrol-1-yl)) it was “without any effect”.
A word on the viability: it is a per cent measure of how many cells are alive, often set against a control. Consider `Cc1ccc(-c2ccccc2)n1-c1ccc2oc(-c3ccccc3)cc(=O)c2c1` [4b, 6-(2-Methyl-5-phenylpyrrol-1-yl)-2-phenylchromen-4-one], for which the IC50 was 2.97 ± 0.17 µM in the data set on 5637 cells (24 h); 2.12 ± 0.19 µM with 5637 cells (48 h); 5.89 ± 1.1 µM in the data set with HT-1376 cells (24 h); roughly 5 µM with HT-1376 cells (setting [2]); 5.37 ± 1.44 µM with HT-1376 cells (setting [3]); greater than 8 µM in the data set with MRC-5 cells (MRC5, 24 h). This compound displayed an IC50 in the data set with MRC-5 cells (MRC5, 48 h) of 5.21 ± 0.1 µM. Moreover, the viability at 24 h, 6 µM in data set [1] (6 µM) came out at 57%. Moreover, the viability at 24 h, 8 µM in data set [1] (8 µM) was found to be 52%.
